The results in this text go back to ChEMBL document CHEMBL1909046, “DrugMatrix in vitro pharmacology data”.

Assay [1] deals with 5-hydroxytryptamine receptor 1B (Rattus norvegicus, UniProt P28564). The assay is classed as cell membranes, Wistar, Cerebral cortex, Membrane.
The target of assay [2] is Cannabinoid receptor 1 (Homo sapiens, UniProt P21554). The assay is classed as cell membranes, Chem-1, Membrane. The following applies: chem-1. Note: in other assays of this panel Not Active means under 50% inhibition at 10 µM.
In assay [3] the target is 5-hydroxytryptamine receptor 4 (Cavia porcellus, UniProt O70528). The assay is classed as cell membranes, Dunkin-Hartley, Striatum, Membrane. Note: in other assays of this panel Not Active means under 50% inhibition at 10 µM.
In assay [4] the target is Melanocortin receptor 3 (Homo sapiens, UniProt P41968). The format is cell membranes, HEK293, Membrane. To be noted: hek293. Note: in other assays of this panel Not Active means under 50% inhibition at 10 µM.
Assay [5] in a line: DRUGMATRIX: Interleukin IL-1 radioligand binding (ligand: [125I] interleukin 1beta). The format is cell membranes, Membrane. To be noted: nih3t3; Not Active = under 50% inhibition at 10 µM.
The nature of assay [6]: DRUGMATRIX: Phosphodiesterase PDE4 enzyme inhibition (substrate: [3H]cAMP + cAMP). To be noted: u-937, Not Active = under 50% inhibition at 10 µM.

Chain of Melanocortin receptor 3 (P41968 whole entry): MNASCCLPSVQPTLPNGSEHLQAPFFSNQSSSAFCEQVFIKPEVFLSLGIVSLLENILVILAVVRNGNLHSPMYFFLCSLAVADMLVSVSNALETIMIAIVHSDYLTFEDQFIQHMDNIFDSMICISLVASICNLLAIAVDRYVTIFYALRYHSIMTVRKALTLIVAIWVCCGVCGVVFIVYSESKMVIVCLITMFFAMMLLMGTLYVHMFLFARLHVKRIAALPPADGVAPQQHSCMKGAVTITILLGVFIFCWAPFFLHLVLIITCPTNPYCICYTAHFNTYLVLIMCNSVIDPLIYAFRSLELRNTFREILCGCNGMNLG
Chain of Cannabinoid receptor 1 (P21554 whole entry): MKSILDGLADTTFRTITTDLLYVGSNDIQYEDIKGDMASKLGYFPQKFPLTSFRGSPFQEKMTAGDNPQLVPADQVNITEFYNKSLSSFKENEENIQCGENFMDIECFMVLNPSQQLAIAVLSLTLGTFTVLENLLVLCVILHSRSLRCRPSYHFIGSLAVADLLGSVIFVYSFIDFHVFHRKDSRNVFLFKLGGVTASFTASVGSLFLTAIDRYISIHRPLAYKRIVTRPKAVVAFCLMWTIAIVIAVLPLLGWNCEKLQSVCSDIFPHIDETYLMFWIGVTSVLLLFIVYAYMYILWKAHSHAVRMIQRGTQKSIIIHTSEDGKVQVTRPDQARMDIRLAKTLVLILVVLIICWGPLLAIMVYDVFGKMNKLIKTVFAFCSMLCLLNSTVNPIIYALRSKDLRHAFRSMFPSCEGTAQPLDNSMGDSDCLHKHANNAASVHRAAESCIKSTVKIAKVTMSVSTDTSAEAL
Chain of 5-hydroxytryptamine receptor 1B (P28564 whole entry): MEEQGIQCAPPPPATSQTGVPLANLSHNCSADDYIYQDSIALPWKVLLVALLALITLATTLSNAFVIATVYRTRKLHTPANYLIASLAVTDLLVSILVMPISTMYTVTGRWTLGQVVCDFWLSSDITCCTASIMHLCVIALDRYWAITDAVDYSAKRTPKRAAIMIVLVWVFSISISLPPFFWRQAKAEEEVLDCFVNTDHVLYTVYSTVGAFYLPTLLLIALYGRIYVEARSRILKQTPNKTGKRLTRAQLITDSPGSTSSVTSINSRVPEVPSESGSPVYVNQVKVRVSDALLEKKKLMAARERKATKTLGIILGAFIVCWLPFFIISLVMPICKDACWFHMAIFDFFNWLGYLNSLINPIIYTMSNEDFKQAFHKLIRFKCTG
Chain of 5-hydroxytryptamine receptor 4 (O70528 whole entry): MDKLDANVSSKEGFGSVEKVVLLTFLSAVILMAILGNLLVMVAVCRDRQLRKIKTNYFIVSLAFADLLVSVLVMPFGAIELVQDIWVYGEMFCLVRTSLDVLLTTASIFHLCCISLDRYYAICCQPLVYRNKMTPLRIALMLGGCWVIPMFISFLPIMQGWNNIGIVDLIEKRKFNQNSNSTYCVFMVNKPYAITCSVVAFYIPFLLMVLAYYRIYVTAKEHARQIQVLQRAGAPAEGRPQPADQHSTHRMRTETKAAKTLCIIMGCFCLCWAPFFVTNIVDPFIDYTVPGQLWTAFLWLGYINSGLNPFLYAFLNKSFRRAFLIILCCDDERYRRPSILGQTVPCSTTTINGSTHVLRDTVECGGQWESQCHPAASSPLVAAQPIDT

With `CCN(CC)N=O` [N-NITROSODIETHYLAMINE], the IC50 entry in assay [1], in assay [2], in assay [3], in assay [4], in assay [5] and in assay [6] was “Not Active” in each case. In addition, the Ki result in assay [5] and in assay [6] was “Not Active” each time.

For `O=C1CC[C@@]2(O)[C@H]3Cc4ccc(O)c5c4[C@@]2(CCN3CC2CC2)[C@H]1O5` [NALTREXONE], the IC50 entry in assay [1], in assay [2], in assay [3], in assay [4], in assay [5] and in assay [6] was “Not Active” each time. The Ki entry in assay [5] and in assay [6] was “Not Active” throughout.

For the compound `Oc1ccc(/C=C/c2cc(O)cc(O)c2)cc1` [RESVERATROL], the IC50 result in assay [1], in assay [2], in assay [3], in assay [4], in assay [5] and in assay [6] was “Not Active” throughout. The Ki entry in assay [5] and in assay [6] was “Not Active” each time.

Consider `CC(N)C12CC3CC(CC(C3)C1)C2` (stereo unspecified) [RIMANTADINE], for which the IC50 entry in assay [1], in assay [2], in assay [3], in assay [4], in assay [5] and in assay [6] was “Not Active” throughout. The Ki result in assay [5] and in assay [6] was “Not Active” each time.

Regarding `CS(=O)(=O)c1ccc(C2=C(c3ccccc3)C(=O)OC2)cc1` [ROFECOXIB], the IC50 result in assay [1], in assay [2], in assay [3], in assay [4], in assay [5] and in assay [6] was “Not Active” throughout. For the same compound, the Ki entry in assay [5] and in assay [6] was “Not Active” each time.

Regarding `C=CCc1ccc2c(c1)OCO2` [SAFROLE], the IC50 result in assay [1], in assay [2], in assay [3], in assay [4], in assay [5] and in assay [6] was “Not Active” in each case. In addition, the Ki entry in assay [5] and in assay [6] was “Not Active” in each case.

Turning to `CCC(C)(C)C(=O)O[C@H]1C[C@@H](C)C=C2C=C[C@H](C)[C@H](CC[C@@H]3C[C@@H](O)CC(=O)O3)[C@H]21` [SIMVASTATIN], the IC50 entry in assay [1], in assay [2], in assay [3], in assay [4], in assay [5] and in assay [6] was “Not Active” each time. Also, the Ki result in assay [5] and in assay [6] was “Not Active” each time.

For `O=[As][O-].[Na+]` [SODIUM ARSENITE], the IC50 entry in assay [1], in assay [2], in assay [3], in assay [4], in assay [5] and in assay [6] was “Not Active” in each case. Moreover, the Ki entry in assay [5] and in assay [6] was “Not Active” throughout.

As for `C1CCN2C[C@@H]3C[C@@H](CN4CCCC[C@@H]34)[C@H]2C1` [SPARTEINE], the IC50 entry in assay [1], in assay [2], in assay [3], in assay [4], in assay [5] and in assay [6] was “Not Active” in each case. In addition, the Ki result in assay [5] and in assay [6] was “Not Active” throughout.

Consider `C[C@]12CCC(=O)C[C@@H]1CC[C@@H]1[C@@H]2CC[C@]2(C)[C@@H](O)CC[C@@H]12` [STANOLONE], for which the IC50 entry in assay [1], in assay [2], in assay [3], in assay [4], in assay [5] and in assay [6] was “Not Active” in each case. In addition, the Ki result in assay [5] and in assay [6] was “Not Active” in each case.

In the case of `Cc1cn([C@H]2C=C[C@@H](CO)O2)c(=O)[nH]c1=O` [STAVUDINE], the IC50 entry in assay [1], in assay [2], in assay [3], in assay [4], in assay [5] and in assay [6] was “Not Active” each time. Also, the Ki entry in assay [5] and in assay [6] was “Not Active” each time.

For `CC1(C)[C@H](C(=O)O)N2C(=O)C[C@H]2S1(=O)=O` [SULBACTAM], the IC50 result in assay [1], in assay [2], in assay [3], in assay [4], in assay [5] and in assay [6] was “Not Active” throughout. The Ki result in assay [5] and in assay [6] was “Not Active” each time.

Turning to `Cc1ccnc(NS(=O)(=O)c2ccc(N)cc2)n1` [SULFAMERAZINE], the IC50 result in assay [1], in assay [2], in assay [3], in assay [4], in assay [5] and in assay [6] was “Not Active” each time. Also, the Ki entry in assay [5] and in assay [6] was “Not Active” throughout.

Regarding `Cc1nnc(NS(=O)(=O)c2ccc(N)cc2)s1` [SULFAMETHIZOLE], the IC50 result in assay [1], in assay [2], in assay [3], in assay [4], in assay [5] and in assay [6] was “Not Active” in each case. In addition, the Ki result in assay [5] and in assay [6] was “Not Active” in each case.

Regarding `O=C(O)c1cc(/N=N/c2ccc(S(=O)(=O)Nc3ccccn3)cc2)ccc1O` [SULFASALAZINE], the IC50 result in assay [1], in assay [2], in assay [3], in assay [4], in assay [5] and in assay [6] was “Not Active” each time. Besides, the Ki entry in assay [5] and in assay [6] was “Not Active” each time.

For `CCN1CCCC1CNC(=O)c1cc(S(N)(=O)=O)ccc1OC` (stereo unspecified) [SULPIRIDE], the half-inhibitory concentration (IC50) entry in assay [1], in assay [2], in assay [3], in assay [4], in assay [5] and in assay [6] was “Not Active” each time. In addition, the Ki entry in assay [5] and in assay [6] was “Not Active” throughout.

Take `O=C(OC[C@H]1O[C@@H](OC(=O)c2cc(O)c(O)c(OC(=O)c3cc(O)c(O)c(O)c3)c2)[C@H](OC(=O)c2cc(O)c(O)c(OC(=O)c3cc(O)c(O)c(O)c3)c2)[C@@H](OC(=O)c2cc(O)c(O)c(OC(=O)c3cc(O)c(O)c(O)c3)c2)[C@@H]1OC(=O)c1cc(O)c(O)c(OC(=O)c2cc(O)c(O)c(O)c2)c1)c1cc(O)c(O)c(OC(=O)c2cc(O)c(O)c(O)c2)c1` [TANNIC ACID]: the IC50 result was “Not Active” in assay [1]; “Not Active” in assay [2]; “Not Active” in assay [3]; “Not Active” in assay [4]; “Not Active” in assay [5]; 1040 nM in assay [6] (read-out: IC50). Besides, in assay [5], the Ki entry is “Not Active”.

Take `C#C[C@]1(O)CC[C@H]2[C@@H]3[C@H](C)CC4=C(CCC(=O)C4)[C@H]3CC[C@@]21C` [TIBOLONE]: the concentration for half-maximal inhibition (IC50) result in assay [1], in assay [2], in assay [3], in assay [4], in assay [5] and in assay [6] was “Not Active” each time. The Ki result in assay [5] and in assay [6] was “Not Active” throughout.

For `Cc1cccc(C)c1NC(=O)C(C)N` (stereo unspecified) [TOCAINIDE], the IC50 result in assay [1], in assay [2], in assay [3], in assay [4], in assay [5] and in assay [6] was “Not Active” throughout. The Ki result in assay [5] and in assay [6] was “Not Active” in each case.

`Cc1ccc(S(=O)(=O)NC(=O)NN2CCCCCC2)cc1` [TOLAZAMIDE]: the IC50 entry in assay [1], in assay [2], in assay [3], in assay [4], in assay [5] and in assay [6] was “Not Active” in each case. Moreover, the Ki result in assay [5] and in assay [6] was “Not Active” each time.

Take `CC[C@@]1(O)C(=O)OCc2c1cc1n(c2=O)Cc2cc3c(CN(C)C)c(O)ccc3nc2-1` [TOPOTECAN]: the IC50 result in assay [1], in assay [2], in assay [3], in assay [4], in assay [5] and in assay [6] was “Not Active” each time. Moreover, the Ki entry in assay [5] and in assay [6] was “Not Active” throughout.

On to `CC1=C(/C=C/C(C)=C/C=C/C(C)=C/C(=O)O)C(C)(C)CCC1` [TRETINOIN], for which the IC50 entry in assay [1], in assay [2], in assay [3], in assay [4], in assay [5] and in assay [6] was “Not Active” throughout. Further, the Ki result in assay [5] and in assay [6] was “Not Active” throughout.

For the compound `CC(Cl)(Cl)Cl` [TRICHLOROETHANE], the IC50 entry in assay [1], in assay [2], in assay [3], in assay [4], in assay [5] and in assay [6] was “Not Active” each time. Moreover, the Ki entry in assay [5] and in assay [6] was “Not Active” in each case.

In the case of `CN1C(=O)OC(C)(C)C1=O` [TRIMETHADIONE], the half-inhibitory concentration (IC50) entry in assay [1], in assay [2], in assay [3], in assay [4], in assay [5] and in assay [6] was “Not Active” in each case. Further, the Ki result in assay [5] and in assay [6] was “Not Active” in each case.
